Target: T1, GLUT1 (Homo sapiens, UniProt P11166)
T1 construct: endogenous in cells
T1 sequence (P11166 1-492): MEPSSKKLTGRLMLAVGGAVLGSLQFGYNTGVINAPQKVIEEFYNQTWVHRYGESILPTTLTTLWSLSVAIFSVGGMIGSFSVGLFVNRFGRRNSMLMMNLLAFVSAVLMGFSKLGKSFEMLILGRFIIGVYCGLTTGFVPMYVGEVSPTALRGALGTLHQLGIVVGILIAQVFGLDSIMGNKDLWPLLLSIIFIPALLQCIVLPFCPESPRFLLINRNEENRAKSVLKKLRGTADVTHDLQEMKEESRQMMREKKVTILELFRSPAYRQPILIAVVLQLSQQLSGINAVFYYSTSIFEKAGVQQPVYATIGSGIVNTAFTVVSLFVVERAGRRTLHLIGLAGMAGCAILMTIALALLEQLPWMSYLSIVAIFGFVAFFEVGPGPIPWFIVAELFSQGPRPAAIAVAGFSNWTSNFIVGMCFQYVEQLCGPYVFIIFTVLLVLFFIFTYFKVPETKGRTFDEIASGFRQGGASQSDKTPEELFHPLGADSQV
Assay: Indirect measurement of GLUT activity by quantification of intracellular ATP levels (glucose induced ATP increase)
Type: cell-based
Details: DLD1 cells; 1 mM glucose, 1 uM Rotenone, 15 min; standardized to cytochalasin B IC50 values; read-out: IC50 regarding glucose induced ATP increase (GLUT1 inhibition)
Text: It is well known that a combination of small-molecule inhibitors of mitochondrial electron transport chain and glucose catabolism synergistically suppress ATP production and impair cellular viability (Ulanovskaya et al., 2008, 2011; Liu, et al. 2001). We therefore used DLD1 or CHO-K1 cells in combination with an oxidative phosphorylation inhibitor to identify GLUT inhibitors. Cell lines were maintained in DMEM medium supplemented with 10% FCS and 1% Penicillin-Streptomycin solution and 2% Glutamax. The cells were treated with trypsin and seeded into 384 plates at a density of 4000 cells/well. The cells were then cultured overnight in glucose free media containing 1% FCS to reduce intracellular ATP levels. After 24 h the cells were incubated at 37° C. containing the appropriate glucose or in case of GLUT2 fructose concentration (1 mM and 30 mM respectively) with or without compounds and 1 uM Rotenone for 15 min. The CellTiter-Glo® Luminescent Cell Viability Assay from Promega was then used to measure ATP levels. Compounds able to reduce the ATP Levels within 15 min of glucose application were considered to be glucose uptake inhibitors.

| Compound | IC50 [nM] |
| --- | --- |
| N#Cc1ccc(Cn2cc(NC(=O)c3cc(C(F)(F)F)nc4ccc(Br)cc34)c(C(N)=O)n2)cc1 [Example 28, 6-bromo-N-[3-carbamoyl-1-(4-cyanobenzyl)-1H-pyrazol-4-yl]-2-(trifluoromethyl)quinoline-4-carboxamide] | 544 |
| CN(C)C(=O)c1nn(Cc2ccc(C#N)cc2)cc1NC(=O)c1cc(C(F)(F)F)nc2ccc(Br)cc12 [Example 29, 6-bromo-N-[1-(4-cyanobenzyl)-3-(dimethylcarbamoyl)-1H-pyrazol-4-yl]-2-(trifluoromethyl)quinoline-4-carboxamide] | 1700 |
| COCCNC(=O)c1nn(Cc2ccc(C#N)cc2)cc1NC(=O)c1cc(C(F)(F)F)nc2ccc(Br)cc12 [Example 30, 6-bromo-N-{1-(4-cyanobenzyl)-3-[(2-methoxyethyl)carbamoyl]-1H-pyrazol-4-yl}-2-(trifluoromethyl)quinoline-4-carboxamide] | 7490 |
| O=C(Nc1cn(Cc2ccc(F)cc2)nc1C(F)(F)F)c1cc(C(F)(F)F)nc2ccc(Br)cc12 [Example 31, 6-bromo-N-[1-(4-fluorobenzyl)-3-(trifluoromethyl)-1H-pyrazol-4-yl]-2-(trifluoromethyl)quinoline-4-carboxamide] | 1180 |
| O=C(Nc1cn(Cc2ccc(F)cc2)nc1C(F)(F)F)c1cc(C(F)(F)F)nc2c(Cl)cc(Cl)cc12 [Example 32, 6,8-dichloro-N-[1-(4-fluorobenzyl)-3-(trifluoromethyl)-1H-pyrazol-4-yl]-2-(trifluoromethyl)quinoline-4-carboxamide] | 763 |
| Cc1ccc2nc(C)cc(C(=O)Nc3cn(Cc4ccc(F)cc4)nc3C(F)(F)F)c2c1 [Example 33, N-[1-(4-fluorobenzyl)-3-(trifluoromethyl)-1H-pyrazol-4-yl]-2,6-dimethylquinoline-4-carboxamide] | 183 |
| O=C(Nc1cn(Cc2ccc(F)cc2)nc1C(F)(F)F)c1cc(C(F)(F)F)nc2cc(F)c(F)cc12 [Example 34, 6,7-difluoro-N-[1-(4-fluorobenzyl)-3-(trifluoromethyl)-1H-pyrazol-4-yl]-2-(trifluoromethyl)quinoline-4-carboxamide] | 2040 |
| N#Cc1ccc(Cn2cc(NC(=O)c3cc(C(N)=O)nc4cc(F)c(Cl)cc34)c(C(F)(F)F)n2)cc1 [Example 35, 6-chloro-N^4-[1-(4-cyanobenzyl)-3-(trifluoromethyl)-1H-pyrazol-4-yl]-7-fluoroquinoline-2,4-dicarboxamide] | 4.4 |
| N#Cc1ccc(Cn2cc(NC(=O)c3cc(C(F)(F)F)nc4ccc(Br)cc34)c(C(F)(F)F)n2)cc1 [Example 36, 6-bromo-N-[1-(4-cyanobenzyl)-3-(trifluoromethyl)-1H-pyrazol-4-yl]-2-(trifluoromethyl)quinoline-4-carboxamide] | 84 |
| COc1cc(C(=O)Nc2cn(Cc3ccc(C#N)cc3)nc2C(F)(F)F)c2ccccc2n1 [Example 37, N-[1-(4-cyanobenzyl)-3-(trifluoromethyl)-1H-pyrazol-4-yl]-2-methoxyquinoline-4-carboxamide] | 179 |
| N#Cc1ccc(Cn2cc(NC(=O)c3cc(C(N)=O)nc4ccccc34)c(C(F)(F)F)n2)cc1 [Example 39, N^4-[1-(4-cyanobenzyl)-3-(trifluoromethyl)-1H-pyrazol-4-yl]quinoline-2,4-dicarboxamide] | 20 |
| NC(=O)c1cc(C(=O)Nc2cn(Cc3ccncc3)nc2C(F)(F)F)c2ccccc2n1 [Example 41, N^4-[1-(pyridin-4-ylmethyl)-3-(trifluoromethyl)-1H-pyrazol-4-yl]quinoline-2,4-dicarboxamide] | 422 |
| CS(=O)(=O)c1ccc(Cn2cc(NC(=O)c3cc(C(N)=O)nc4ccccc34)c(C(F)(F)F)n2)cc1 [Example 42, N^4-{1-[4-(methylsulfonyl)benzyl]-3-(trifluoromethyl)-1H-pyrazol-4-yl}quinoline-2,4-dicarboxamide] | 61 |
| CS(=O)(=O)c1ccc(Cn2cc(NC(=O)c3cc(C(F)(F)F)nc4ccc(Br)cc34)c(C(F)(F)F)n2)cc1 [Example 43, 6-bromo-N-{1-[4-(methylsulfonyl)benzyl]-3-(trifluoromethyl)-1H-pyrazol-4-yl}-2-(trifluoromethyl)quinoline-4-carboxamide] | 440 |
| CS(=O)(=O)c1ccc(Cn2cc(NC(=O)c3cc(C(N)=O)nc4cc(F)c(Cl)cc34)c(C(F)(F)F)n2)cc1 [Example 44, 6-chloro-7-fluoro-N^4-{1-[4-(methylsulfonyl)benzyl]-3-(trifluoromethyl)-1H-pyrazol-4-yl}quinoline-2,4-dicarboxamide] | 11 |
| CS(=O)(=O)c1ccc(Cn2cc(NC(=O)c3cc(C(N)=O)nc4cc(F)ccc34)c(C(F)(F)F)n2)cc1 [Example 45, 7-fluoro-N^4-{1-[4-(methylsulfonyl)benzyl]-3-(trifluoromethyl)-1H-pyrazol-4-yl}quinoline-2,4-dicarboxamide] | 126 |
| COc1ccc(Cn2cc(NC(=O)c3cc(C(N)=O)nc4cc(F)c(Cl)cc34)c(C(F)(F)F)n2)cc1 [Example 46, 6-chloro-7-fluoro-N^4-[1-(4-methoxybenzyl)-3-(trifluoromethyl)-1H-pyrazol-4-yl]quinoline-2,4-dicarboxamide] | 4.7 |
| COc1ccc(Cn2cc(NC(=O)c3cc(C(F)(F)F)nc4ccc(Br)cc34)c(C(F)(F)F)n2)cc1 [Example 47, 6-bromo-N-[1-(4-methoxybenzyl)-3-(trifluoromethyl)-1H-pyrazol-4-yl]-2-(trifluoromethyl)quinoline-4-carboxamide] | 138 |
| COc1ccc(Cn2cc(NC(=O)c3cc(OC)nc4ccccc34)c(C(F)(F)F)n2)cc1 [Example 48, 2-methoxy-N-[1-(4-methoxybenzyl)-3-(trifluoromethyl)-1H-pyrazol-4-yl]quinoline-4-carboxamide] | 193 |
| COc1ccc(Cn2cc(NC(=O)c3cc(C(N)=O)nc4ccccc34)c(C(F)(F)F)n2)cc1 [Example 49, N^4-[1-(4-methoxybenzyl)-3-(trifluoromethyl)-1H-pyrazol-4-yl]quinoline-2,4-dicarboxamide] | 4.1 |
| COc1ccc(Cn2cc(NC(=O)c3cc(C(N)=O)nc4cc(F)ccc34)c(C(F)(F)F)n2)cc1 [Example 50, 7-fluoro-N^4-[1-(4-methoxybenzyl)-3-(trifluoromethyl)-1H-pyrazol-4-yl]quinoline-2,4-dicarboxamide] | 3.9 |
| Cc1nn(Cc2ccc(C#N)cc2)cc1NC(=O)c1cc(C2CC2)nc2ccc(Br)cc12 [Example 51, 6-bromo-N-[1-(4-cyanobenzyl)-3-methyl-1H-pyrazol-4-yl]-2-cyclopropylquinoline-4-carboxamide] | 5.2 |
| Cc1nn(Cc2ccc(C#N)cc2)cc1NC(=O)c1cc(C(N)=O)nc2cc(F)ccc12 [Example 52, N^4-[1-(4-cyanobenzyl)-3-methyl-1H-pyrazol-4-yl]-7-fluoroquinoline-2,4-dicarboxamide] | 3.1 |
| Cc1nn(Cc2ccc(C#N)cc2)cc1NC(=O)c1cc(C(N)=O)nc2cc(F)c(Cl)cc12 [Example 53, 6-chloro-N^4-[1-(4-cyanobenzyl)-3-methyl-1H-pyrazol-4-yl]-7-fluoroquinoline-2,4-dicarboxamide] | 4 |
| Cc1ccc(Cn2cc(NC(=O)c3cc(C(N)=O)nc4ccccc34)c(C)n2)cc1 [Example 54, N^4-[3-methyl-1-(4-methylbenzyl)-1H-pyrazol-4-yl]quinoline-2,4-dicarboxamide] | 13 |
| Cc1nn(Cc2ccc(F)c(F)c2)cc1NC(=O)c1cc(C(N)=O)nc2ccccc12 [Example 55, N^4-[1-(3,4-difluorobenzyl)-3-methyl-1H-pyrazol-4-yl]quinoline-2,4-dicarboxamide] | 83 |
| Cc1nn(Cc2cccc(F)c2)cc1NC(=O)c1cc(C(N)=O)nc2ccccc12 [Example 56, N^4-[1-(3-fluorobenzyl)-3-methyl-1H-pyrazol-4-yl]quinoline-2,4-dicarboxamide] | 193 |
| Cc1nn(CC2CCCCC2)cc1NC(=O)c1cc(C(N)=O)nc2ccccc12 [Example 57, N^4-[1-(cyclohexylmethyl)-3-methyl-1H-pyrazol-4-yl]quinoline-2,4-dicarboxamide] | 556 |
| Cc1nn(Cc2ccncc2)cc1NC(=O)c1cc(C(N)=O)nc2ccccc12 [Example 58, N^4-[3-methyl-1-(pyridin-4-ylmethyl)-1H-pyrazol-4-yl]quinoline-2,4-dicarboxamide] | 702 |
| CCc1nn(Cc2ccc(C#N)cc2)cc1NC(=O)c1cc(C(N)=O)nc2cc(F)ccc12 [Example 59, N^4-[1-(4-cyanobenzyl)-3-ethyl-1H-pyrazol-4-yl]-7-fluoroquinoline-2,4-dicarboxamide] | 34 |

From patent US20170226081A1, “GLUCOSE TRANSPORT INHIBITORS” (Bayer Pharma Aktiengesellschaft, priority 2014, published 2017)
